PubChem BioAssay (NCI)
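Exposure lasted 48 hours, with cells grown in 96-well plates and compounds tested at five concentrations. GI50 = concentration required for 50% inhibition of growth. TGI: total growth inhibition.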

Columns and labels:
Experiment in all cases: NCI anticancer screen, dose series, 48 h
OVCAR-5 ovarian = tested on: OVCAR-5 ovarian
NCI-H23 lung = tested on: NCI-H23 lung
SNB-75 CNS = tested on: SNB-75 CNS
SF-539 CNS = tested on: SF-539 CNS
786-0 renal = tested on: 786-0 renal
HCT-116 colon = tested on: HCT-116 colon
OVCAR-3 ovarian = tested on: OVCAR-3 ovarian
SK-MEL-2 melanoma = tested on: SK-MEL-2 melanoma
A498 renal = tested on: A498 renal
MDA-MB-435 = tested on: MDA-MB-435

| Structure (SMILES) | TGI (OVCAR-5 ovarian) [µM] | TGI (NCI-H23 lung) [µM] | TGI (SNB-75 CNS) [µM] | TGI (SF-539 CNS) [µM] | TGI (786-0 renal) [µM] | TGI (HCT-116 colon) [µM] | TGI (OVCAR-3 ovarian) [µM] | TGI (SK-MEL-2 melanoma) [µM] | GI50 (OVCAR-5 ovarian) [µM] | GI50 (NCI-H23 lung) [µM] | GI50 (SNB-75 CNS) [µM] | GI50 (SF-539 CNS) [µM] | GI50 (786-0 renal) [µM] | GI50 (HCT-116 colon) [µM] | GI50 (OVCAR-3 ovarian) [µM] | GI50 (SK-MEL-2 melanoma) [µM] | GI50 (A498 renal) [µM] | TGI (A498 renal) [µM] | TGI (MDA-MB-435) [µM] | GI50 (MDA-MB-435) [µM] |
| --- | --- | --- | --- | --- | --- | --- | --- | --- | --- | --- | --- | --- | --- | --- | --- | --- | --- | --- | --- | --- |
| CC(C)(C)OC(=O)N1C2CCCC23O[C@@H]1c1cc2c(cc1C3=O)OCO2 (some centres undefined) | > 100 | > 100 | 56.8 | 55.4 | > 100 | > 100 | 40.2 | > 100 |  |  |  |  |  |  |  |  |  |  |  |  |
| Cc1ccc2[c](c1)[Sn]([c]1ccccc1)([c]1ccccc1)[c]1cc(C)ccc1N2C | > 100 | > 100 | > 100 | > 100 | > 100 | > 100 | > 100 | 51.9 | 70.3 | 41 | > 100 | > 100 | 16.2 | 20.9 | 37.9 | 11.2 |  |  |  |  |
| COC(=O)[C@]12CC[C@@H](C)[C@H](C)[C@@H]1C1=CC[C@@H]3[C@@]4(C)C(C=O)=C[C@@](C)(COC(=O)c5ccco5)[C@@H]4[C@H](O)C[C@@]3(C)[C@]1(C)CC2 | 9.72 | 7.01 | 4.12 | 3.93 | 7.13 | 2.59 | 3.73 | 1.9 | 3 | 2.24 | 1.49 | 1.89 | 2.4 | 1.19 | 1.87 | 0.423 | 3.19 | 12.7 |  |  |
| O=C1c2ccccc2C(=O)N1C/C=N/NS(=O)(=O)c1ccc(Br)cc1 | > 100 | > 100 | > 100 | > 100 | > 100 | > 100 | > 100 | > 100 |  |  |  |  |  |  |  |  |  | > 100 |  |  |
| CC1COS(=O)O1 (centres undefined) | > 100 | > 100 | > 100 | > 100 | > 100 | > 100 | > 100 | > 100 |  |  |  |  |  |  |  |  |  | > 100 |  |  |
| COc1cc(/C=C2\CCC/C(=C\c3ccc(OCC4CO4)c(OC)c3)C2=O)ccc1OCC1CO1 (centres undefined) | 10.6 | 9.71 | 19.1 | 6.78 | 3.85 | 6.01 | 6.23 | 5.37 | 2.87 | 2.8 | 2.92 | 2.4 | 2.04 | 1.85 | 2.44 | 2.43 | 3.62 | 10.1 |  |  |
| O=C1C=CC(=CC=C2C=CN(CCCCCCCCCCC(=O)NCCCCCCCCCCCC(=O)O)C=C2)C=C1 | > 100 | > 100 | > 100 | > 100 | > 100 | > 100 | > 100 |  |  |  |  |  |  |  |  |  |  | > 100 |  |  |
| NC(=S)N/N=C1\CCCC\C1=C/c1ccccc1 | 70.4 | > 100 | > 100 | > 100 | > 100 | > 100 | > 100 | > 100 |  |  |  |  |  |  |  |  |  | > 100 |  |  |
| C=C1C(=O)OC2C1CC(OC(C)=O)/C(C)=C/CCC1(C)OC21 (centres undefined) | > 100 | > 100 | > 100 | > 100 | > 100 | > 100 | > 100 | > 100 |  |  |  |  |  |  |  |  |  |  | > 100 |  |
| C[Si](C)(C)CN1C(=O)c2ccccc2C1(O)c1ccccc1 (centres undefined) | > 100 | > 100 | > 100 | > 100 | > 100 | > 100 | > 100 | > 100 |  |  |  |  |  |  |  |  |  | > 100 |  |  |
| Cc1ccc(C)c(N2C(=O)C(=O)C(c3nc4ccccc4o3)/C(=N\NC(=O)c3ccccc3O)C2=O)c1 (centres undefined) | > 100 | 28.7 | > 100 | 65.2 | > 100 | 63.6 | 63 | > 100 |  |  |  |  |  |  |  |  |  | 76.8 |  |  |
| Cc1ccc(NC(=O)C(=O)C2C(=O)NC(=O)NC2=O)cc1C | > 100 | > 100 | > 100 | > 100 | > 100 | > 100 | > 100 | > 100 |  |  |  |  |  |  |  |  |  |  |  |  |
| C1=NC(N(Cc2ccccc2)Cc2ccccc2)N(Cc2ccccc2)N1 (centres undefined) | 42 | 54.9 | 62.8 | 29.5 | 35.4 | 21.3 | 27.3 | 31.8 |  |  |  |  |  |  |  |  |  | 32.2 |  |  |
| CSc1ccc2c(cc1=O)[C@@H](NC(=O)c1cc(O)c(O)c(O)c1)CCc1cc(O)c(O)c(O)c1-2 | 31.3 | 39.7 | 53.7 | 52.3 | > 100 | 29.4 | 70 |  |  |  |  |  |  |  |  |  |  | > 100 |  |  |
| CCCCCCCCCCCCCCCCCCC1=C(O)C(=O)C=C(OC)C1=O | > 100 | > 100 | > 100 | > 100 | > 100 | > 100 | > 100 | 76.5 |  |  |  |  |  |  |  |  |  | > 100 |  |  |
| Cc1ccc2c(c1-c1ccccc1)C(=O)OC2 |  | > 100 | > 100 |  | > 100 | > 100 | > 100 | > 100 |  |  |  |  |  |  |  |  |  | > 100 |  |  |
| O=C1/C(=C/N2N=C(c3ccc4ccccc4c3)CC2c2ccccc2O)SC(=S)N1c1cccnc1 (centres undefined) | > 100 | > 100 | 13.1 | 5.16 | > 100 | > 100 | 38.5 |  | 6.19 | 3.03 | 0.987 | 1.18 | 0.492 | 0.33 | 0.571 |  | 1.38 | 5.83 | 3.17 | 0.481 |
| N#Cc1c(-c2ccco2)cc(-c2ccc(N)cc2)[nH]c1=O | > 100 | > 100 | > 100 | > 100 | > 100 | > 100 | > 100 |  |  |  |  |  |  |  |  |  |  | > 100 |  |  |
| NC(=O)CNc1ccc([As]=[As]c2ccc(NCC(N)=O)cc2)cc1 (centres undefined) | 20.2 | 31.1 | 9.13 | > 100 | 14.3 | 16.3 | 6.14 |  | 4.42 | 8.1 | 1.73 | 2.8 | 3.21 | 3.64 | 2.1 |  | 4.69 | 18 | 56.6 | 6.24 |
| NC(CCc1ncc(C(=O)O)s1)C(=O)O (centres undefined) |  | > 100 | > 100 | > 100 | > 100 | > 100 | > 100 |  |  |  |  |  |  |  |  |  |  | > 100 |  |  |
